Results: publication PMC4050370 (Nature structural & molecular biology, 2014)

Molecular target: LeuT (leucine transporter) (Aquifex aeolicus, UniProt O67854)
Assay: [3H]-Ala uptake in proteoliposomes
Type: biochemical
Settings: Na+-dependent; 50 mM NaCl, 50 mM Tris-Mes pH 8.5, 22 °C; labelled compound

## C[C@H](N)C(=O)O [alanine]
  [3H]-Ala uptake in proteoliposomes: we measured Na^+-dependent alanine uptake in proteoliposomes for a large subset of mutants
